From patent US20260200923A1, “HETEROCYCLIC COMPOUNDS TARGETING THE NUDT5 PROTEIN” (Oxford University Innovation Limited, priority 2022, published 2026)

What was measured:
Type in all cases: cell-based
NUDT5 [1] = target: T1, NUDT5 (Homo sapiens, UniProt Q9UKK9); assay: CRBN knock-out experiment, NUDT5 degradation; design: endogenous in cells; host or cells: HEK293 (also CRBN knock-out HEK293 for A13); settings: CRBN knock-out HEK293 cells, 20 h
NUDT5-CRBN interaction = target: T2, NUDT5-CRBN interaction (Homo sapiens, UniProt Q96SW2+Q9UKK9); assay: NanoBRET ternary complex formation (protein-protein interaction) assay; settings: HEK293 cells, 4 h
T2 construct: expressed in transfected cells; host or cells: HEK293
Procedure: For NanoBRET protein-protein interaction assay, NanoBRET Nano-Glo Detection System (N1662, Promega) was used according to the manufacturer's instruction. In brief, 220,000 HEK293 cells/ml was seeded in a 6-well plate. After 6 h, N-terminal nanoLuc NUDT5 and Halo-tag CRBN were then transfected into the cells using Fugene HD transfection reagent (E2312, Promega). The transfected HEK293 (220,000 cells/ml) were then replated onto a 384-well plate containing compounds. After 4 h incubation, NanoLuc substrate was added into each well and the signals were measured by PHERAstar Microplate Reader.
Compounds were dispensed in the 384-well plates by using Echo Acoustic Dispenser.

NUDT5-PPAT interaction = target: T3, NUDT5-PPAT interaction (Homo sapiens, UniProt Q9UKK9); assay: immunoprecipitation of endogenous PPAT; settings: HAP1 cells, 100 nM, 20 h
T3 construct: endogenous in cells; host or cells: HAP1 WT
Procedure: For detecting TH5427 interactors and the PPAT-NUDT5 interaction, protein samples were prepared using RIPA buffer containing benzonase (E1014-25KU, Sigma-Aldrich). Protein concentration was measured by DC assay (U.S. Pat. Nos. 5,000,113, 5,000,114, 5,000,115, Biorad). 30 μg protein out of each sample was separated on a SDS-page gel (3450125, Biorad) and transferred to a nitrocellulose membrane (10600014, Sigma-Aldrich) at 0.4 A for 1 h. The membranes were blocked by 5% BLOT-QuickBlocker in PBS-T at room temperature for 1 h (786-011, Bioscience) and incubated with primary antibodies at 4° C. overnight. Then, fluorophor conjugated secondary antibodies diluted 1:500 in 2×BLOT-QuickBlocker in PBS-T were added onto the membrane for 1 h at room temperature. Protein bands were visualized by a Odyssey® DLx Imaging System (Licor). The following primary antibodies were used: NUDT5 (ab129172, Abeam, 1:1000, anti-rabbit) or NUDT5 (sc-398644, 1:200, anti-mouse), β-actin (sc-69879, Santa Cruz Biotechnology, 1:200) and PPAT (15401-1-AP, Proteintech, 1:1000). The following secondary antibodies were used: Alexa Fluor 750 goat anti-mouse IgG (A21037, Life technologies) and goat anti-rabbit IgG (H+L) cross-adsorbed secondary Antibody, Alexa Fluor 647 (A21244, Life technologies).
HAP-1 WT cells were treated with 100 nM TH5427, dNUDT5 or DMSO for 20 h in a 100 mm dish. […]

NUDT5 [2] = target: T1, NUDT5; assay: NUDT5 degradation by Western blot in HAP-1 cells; design: endogenous in cells
Procedure: For Western blots, proteins were separated on polyacrylamide gels with SDS running buffer (50 mM Tris, 380 mM Glycine, 7 mM SDS) and transferred to PVDF membranes. All membranes were then blocked with blocking buffer (5% w/v milk powder, BioRad) in TBST (50 mM Tris (tris(hydroxymethylaminomethane), 150 mM NaCl, 0.05% (v/v) Tween 20, adjusted to pH 7.6) Proteins were probed with antibodies against phospho-AMPK (50081S, 1:2000, Cell Signaling Technologies), AMPK (5832S, 1:2000, Cell Signaling Technologies), PML (ab179466, 1:1000, abeam), PARP8 (NBP213733, 1:1000, Novus Biologicals), ATF2/7 (82870, 1:1000, Cell Signaling Technologies), alpha-Tubulin (ab7291, 1:1000, Abeam), phospho-UBTF (ab182583, 1:1000, abeam), UBTF (HPA006385, 1:1000, Sigma), RBM38 (AV40862, 1:1000, Sigma), or NUDT5 (ab129172, 1:1000, abeam), detected by HRP (horse-radish peroxidase) conjugated donkey anti-rabbit IgG antibody (Pierce) or donkey anti-mouse antibody IgG antibody (Pierce) and visualized with Clarity ECL Western Blotting substrate (BioRad), according to provided protocol.

HAP-1 cells = assay: 6-thioguanine assay (CellTiter-Glo viability); settings: 0.2 μg/ml 6-thioguanine, 72 h; HAP1 (and NB4, FIG. 11)
Procedure: NB-4 and HAP1 cells (1000 cells/well in 40 uL) were seeded onto a 384-well plate containing compounds. DMSO or 0.2 μg/ml 6-thioguanine (A4882, Sigma-Aldrich) was added into respective wells. After 72 h incubation cell viability was measured by using CellTiter-Glo 2.0 Assay (G9242, Promega). Compounds in the 384-well plates were prepared by using Echo Acoustic Dispenser.

## Cn1c(=O)c2c(nc(N3CCN(C(=O)N4CCC(CN5CCN(c6ccc7c(c6)C(=O)N(C6CCC(=O)NC6=O)C7=O)CC5)CC4)CC3)n2Cc2nnc(-c3ccc(Cl)c(Cl)c3)o2)n(C)c1=O (stereo not drawn) [dNUDT5, 7-((5-(3,4-dichlorophenyl)-1,3,4-oxadiazol-2-yl)methyl)-8-(4-(4-((4-(2-(2,6-dioxopiperidin-3-yl)-1,3-dioxoisoindolin-5-yl)piperazin-1-yl)methyl)piperidine-1-carbonyl)piperazin-l-yl)-1,3-dimethyl-3,7-dihydro-1H-purine-2,6-dione]
NUDT5 [1]
  dependence of degradation on E3 ligase: E3-ligase-dependant
NUDT5-CRBN interaction
  ternary complex formation between NUDT5 and CRBN: able to induce proficient ternary complex formation
NUDT5-PPAT interaction
  amount of NUDT5 interacting with PPAT: strongly reduced the amount of NUDT5 interacting with PPAT
NUDT5 [2]
  DC50: 300 pM
HAP-1 cells
  rescue of 6-TG toxicity: able to rescue 6-TG toxicity
